The NIST ThermoML archive (doi:10.1021/je900550v)

Conditions: 101.33 kPa, Liquid; for speed of sound: Pulse-echo method; for mass density: Vibrating tube method

CC(C)C(=O)[O-].C[NH2+]CCO [2-hydroxy-N-methylethanaminium isobutyrate]
Conditions | mass density [kg/m3] | speed of sound [m/s] | viscosity [mPa·s]
323.15 K | – | – | 47.96
323.16 K | 1027.03 | 1540.6 | –
323.41 K | 1026.86 | 1539.9 | –
323.65 K | 1026.69 | 1539.2 | –
323.91 K | 1026.53 | 1538.5 | –
324.16 K | 1026.36 | 1537.7 | –
324.41 K | 1026.19 | 1537 | –
324.65 K | 1026.03 | 1536.3 | –
324.9 K | 1025.86 | 1535.6 | –
325.16 K | 1025.69 | 1534.9 | –
325.4 K | 1025.52 | 1534.2 | –
325.66 K | 1025.36 | 1533.5 | –
325.9 K | 1025.19 | 1532.8 | –
326.16 K | 1025.02 | 1532.1 | –
326.41 K | 1024.85 | 1531.4 | –
326.66 K | 1024.68 | 1530.7 | –
326.9 K | 1024.52 | 1529.9 | –
327.16 K | 1024.34 | 1529.2 | –
327.4 K | 1024.18 | 1528.5 | –
327.66 K | 1024.01 | 1527.8 | –
327.9 K | 1023.84 | 1527.1 | –
328.15 K | 1023.67 | 1526.4 | –
328.41 K | 1023.5 | 1525.7 | –
328.66 K | 1023.33 | 1524.9 | –
328.9 K | 1023.16 | 1524.2 | –
329.16 K | 1022.99 | 1523.5 | –
329.4 K | 1022.82 | 1522.8 | –
329.65 K | 1022.65 | 1522 | –
329.9 K | 1022.48 | 1521.3 | –
330.16 K | 1022.32 | 1520.6 | –
330.41 K | 1022.14 | 1519.9 | –
330.66 K | 1021.98 | 1519.1 | –
330.91 K | 1021.81 | 1518.4 | –
331.16 K | 1021.63 | 1517.7 | –
331.41 K | 1021.47 | 1517 | –
331.66 K | 1021.29 | 1516.2 | –
331.91 K | 1021.13 | 1515.5 | –
332.16 K | 1020.95 | 1514.8 | –
332.41 K | 1020.78 | 1514.1 | –
332.66 K | 1020.61 | 1513.4 | –
332.91 K | 1020.44 | 1512.7 | –
333.16 K | 1020.27 | 1511.9 | –
333.41 K | 1020.1 | 1511.2 | –
333.66 K | 1019.93 | 1510.5 | –
333.91 K | 1019.76 | 1509.8 | –
334.16 K | 1019.59 | 1509.1 | –
334.41 K | 1019.42 | 1508.3 | –
334.66 K | 1019.24 | 1507.6 | –
334.91 K | 1019.07 | 1506.9 | –
335.16 K | 1018.9 | 1506.2 | –
335.41 K | 1018.73 | 1505.5 | –
335.66 K | 1018.56 | 1504.7 | –
335.91 K | 1018.38 | 1504 | –
336.16 K | 1018.22 | 1503.3 | –
336.41 K | 1018.04 | 1502.6 | –
336.66 K | 1017.87 | 1501.9 | –
336.9 K | 1017.7 | 1501.2 | –
337.16 K | 1017.53 | 1500.4 | –
337.4 K | 1017.35 | 1499.7 | –
337.66 K | 1017.18 | 1499 | –
337.9 K | 1017.01 | 1498.3 | –
338.15 K | 1016.84 | 1497.7 | –
